Experimental data as given in ChEMBL document CHEMBL3991601, “The target landscape of clinical kinase drugs” (Science, 2017).
Calls of active or inactive are those of the source.

Each molecule was assayed against T1, UMP-CMP kinase (Homo sapiens, UniProt P30085).
T1 sequence (P30085 whole entry): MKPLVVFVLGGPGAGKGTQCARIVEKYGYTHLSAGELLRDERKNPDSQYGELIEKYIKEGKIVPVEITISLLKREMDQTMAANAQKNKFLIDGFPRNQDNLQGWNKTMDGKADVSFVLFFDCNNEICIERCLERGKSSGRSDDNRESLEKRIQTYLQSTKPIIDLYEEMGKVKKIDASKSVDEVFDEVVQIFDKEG
Also: in the data inactive means no Kd found up to 30 µM.

SMILES	Kd
CCc1cnn2c(NCc3ccc[n+]([O-])c3)cc(N3CCCC[C@H]3CCO)nc12 [DINACICLIB]	> 30 µM (inactive)
C[C@@H](c1ccc2nccn2c1)n1nnc2ncc(-c3cnn(C)c3)nc21 [SAVOLITINIB]	> 30 µM (inactive)
COc1cc2nccc(Oc3ccc(NC(=O)Nc4cc(C)on4)c(Cl)c3)c2cc1OC [TIVOZANIB]	> 30 µM (inactive)
CCCS(=O)(=O)Nc1ccc(F)c(C(=O)c2c[nH]c3ncc(-c4ccc(Cl)cc4)cc23)c1F [VEMURAFENIB]	> 30 µM (inactive)

These molecules were tested against T2, Ephrin type-A receptor 1 (Homo sapiens, UniProt P21709).
T2 sequence (P21709 whole entry): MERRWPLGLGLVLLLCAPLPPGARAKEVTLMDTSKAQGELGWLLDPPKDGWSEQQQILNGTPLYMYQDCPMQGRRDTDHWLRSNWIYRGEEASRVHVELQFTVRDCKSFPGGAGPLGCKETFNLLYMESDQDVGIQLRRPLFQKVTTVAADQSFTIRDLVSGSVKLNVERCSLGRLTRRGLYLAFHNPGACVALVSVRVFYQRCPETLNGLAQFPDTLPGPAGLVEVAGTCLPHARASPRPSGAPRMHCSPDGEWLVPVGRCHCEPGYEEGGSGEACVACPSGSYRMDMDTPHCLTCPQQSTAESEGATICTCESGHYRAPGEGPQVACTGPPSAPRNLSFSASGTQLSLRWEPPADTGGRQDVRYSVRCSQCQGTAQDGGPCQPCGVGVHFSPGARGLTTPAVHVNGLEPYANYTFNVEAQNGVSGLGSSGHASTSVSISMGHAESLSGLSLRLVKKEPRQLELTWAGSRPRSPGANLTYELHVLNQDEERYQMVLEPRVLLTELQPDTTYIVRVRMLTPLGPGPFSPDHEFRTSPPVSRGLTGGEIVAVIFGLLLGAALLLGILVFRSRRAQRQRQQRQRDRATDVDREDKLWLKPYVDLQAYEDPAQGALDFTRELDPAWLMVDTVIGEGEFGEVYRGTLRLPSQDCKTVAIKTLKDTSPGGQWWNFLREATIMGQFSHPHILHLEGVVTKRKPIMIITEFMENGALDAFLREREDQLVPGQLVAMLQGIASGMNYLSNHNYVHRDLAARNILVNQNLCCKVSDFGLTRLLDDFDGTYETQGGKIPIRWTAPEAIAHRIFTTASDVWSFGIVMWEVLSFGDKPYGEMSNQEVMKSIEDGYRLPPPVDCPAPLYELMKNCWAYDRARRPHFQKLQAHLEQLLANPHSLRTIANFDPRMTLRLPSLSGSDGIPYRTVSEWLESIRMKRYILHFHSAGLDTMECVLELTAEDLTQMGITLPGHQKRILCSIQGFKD

SMILES	Kd
CCc1cnn2c(NCc3ccc[n+]([O-])c3)cc(N3CCCC[C@H]3CCO)nc12 [DINACICLIB]	> 30 µM (inactive)
COc1cc2nccc(Oc3ccc(NC(=O)Nc4cc(C)on4)c(Cl)c3)c2cc1OC [TIVOZANIB]	> 30 µM (inactive)
CCCS(=O)(=O)Nc1ccc(F)c(C(=O)c2c[nH]c3ncc(-c4ccc(Cl)cc4)cc23)c1F [VEMURAFENIB]	> 30 µM (inactive)

The molecules below were run against Ephrin type-A receptor 7 (Homo sapiens, UniProt Q15375).

SMILES	Kd
CCc1cnn2c(NCc3ccc[n+]([O-])c3)cc(N3CCCC[C@H]3CCO)nc12 [DINACICLIB]	> 30 µM (inactive)

Each molecule was assayed against T3, Inhibitor of nuclear factor kappa-B kinase subunit epsilon (Homo sapiens, UniProt Q14164).
T3 sequence (Q14164 whole entry): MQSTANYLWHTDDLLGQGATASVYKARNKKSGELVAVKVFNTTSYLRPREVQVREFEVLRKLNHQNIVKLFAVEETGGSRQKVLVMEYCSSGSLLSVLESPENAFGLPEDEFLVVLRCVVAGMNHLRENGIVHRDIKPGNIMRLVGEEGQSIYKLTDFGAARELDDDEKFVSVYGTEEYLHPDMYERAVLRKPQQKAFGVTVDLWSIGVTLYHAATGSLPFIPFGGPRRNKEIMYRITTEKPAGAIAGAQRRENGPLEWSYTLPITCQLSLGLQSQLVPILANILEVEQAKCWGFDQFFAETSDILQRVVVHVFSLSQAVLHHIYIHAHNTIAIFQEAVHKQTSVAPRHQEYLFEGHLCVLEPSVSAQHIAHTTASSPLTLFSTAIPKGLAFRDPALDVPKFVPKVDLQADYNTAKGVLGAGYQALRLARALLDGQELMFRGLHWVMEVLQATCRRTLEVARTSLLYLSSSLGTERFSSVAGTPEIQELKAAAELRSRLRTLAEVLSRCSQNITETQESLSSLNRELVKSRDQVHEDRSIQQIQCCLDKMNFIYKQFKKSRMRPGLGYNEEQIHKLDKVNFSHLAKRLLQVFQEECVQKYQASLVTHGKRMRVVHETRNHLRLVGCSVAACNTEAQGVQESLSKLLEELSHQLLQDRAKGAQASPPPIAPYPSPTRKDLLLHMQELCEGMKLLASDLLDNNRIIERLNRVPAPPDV

SMILES	Kd
C[C@@H](c1ccc2nccn2c1)n1nnc2ncc(-c3cnn(C)c3)nc21 [SAVOLITINIB]	> 30 µM (inactive)
COc1cc2nccc(Oc3ccc(NC(=O)Nc4cc(C)on4)c(Cl)c3)c2cc1OC [TIVOZANIB]	> 30 µM (inactive)
CCCS(=O)(=O)Nc1ccc(F)c(C(=O)c2c[nH]c3ncc(-c4ccc(Cl)cc4)cc23)c1F [VEMURAFENIB]	> 30 µM (inactive)

What follows are molecules tested against Hepatocyte growth factor receptor (Homo sapiens, UniProt P08581).
Chain of Hepatocyte growth factor receptor (P08581 whole entry): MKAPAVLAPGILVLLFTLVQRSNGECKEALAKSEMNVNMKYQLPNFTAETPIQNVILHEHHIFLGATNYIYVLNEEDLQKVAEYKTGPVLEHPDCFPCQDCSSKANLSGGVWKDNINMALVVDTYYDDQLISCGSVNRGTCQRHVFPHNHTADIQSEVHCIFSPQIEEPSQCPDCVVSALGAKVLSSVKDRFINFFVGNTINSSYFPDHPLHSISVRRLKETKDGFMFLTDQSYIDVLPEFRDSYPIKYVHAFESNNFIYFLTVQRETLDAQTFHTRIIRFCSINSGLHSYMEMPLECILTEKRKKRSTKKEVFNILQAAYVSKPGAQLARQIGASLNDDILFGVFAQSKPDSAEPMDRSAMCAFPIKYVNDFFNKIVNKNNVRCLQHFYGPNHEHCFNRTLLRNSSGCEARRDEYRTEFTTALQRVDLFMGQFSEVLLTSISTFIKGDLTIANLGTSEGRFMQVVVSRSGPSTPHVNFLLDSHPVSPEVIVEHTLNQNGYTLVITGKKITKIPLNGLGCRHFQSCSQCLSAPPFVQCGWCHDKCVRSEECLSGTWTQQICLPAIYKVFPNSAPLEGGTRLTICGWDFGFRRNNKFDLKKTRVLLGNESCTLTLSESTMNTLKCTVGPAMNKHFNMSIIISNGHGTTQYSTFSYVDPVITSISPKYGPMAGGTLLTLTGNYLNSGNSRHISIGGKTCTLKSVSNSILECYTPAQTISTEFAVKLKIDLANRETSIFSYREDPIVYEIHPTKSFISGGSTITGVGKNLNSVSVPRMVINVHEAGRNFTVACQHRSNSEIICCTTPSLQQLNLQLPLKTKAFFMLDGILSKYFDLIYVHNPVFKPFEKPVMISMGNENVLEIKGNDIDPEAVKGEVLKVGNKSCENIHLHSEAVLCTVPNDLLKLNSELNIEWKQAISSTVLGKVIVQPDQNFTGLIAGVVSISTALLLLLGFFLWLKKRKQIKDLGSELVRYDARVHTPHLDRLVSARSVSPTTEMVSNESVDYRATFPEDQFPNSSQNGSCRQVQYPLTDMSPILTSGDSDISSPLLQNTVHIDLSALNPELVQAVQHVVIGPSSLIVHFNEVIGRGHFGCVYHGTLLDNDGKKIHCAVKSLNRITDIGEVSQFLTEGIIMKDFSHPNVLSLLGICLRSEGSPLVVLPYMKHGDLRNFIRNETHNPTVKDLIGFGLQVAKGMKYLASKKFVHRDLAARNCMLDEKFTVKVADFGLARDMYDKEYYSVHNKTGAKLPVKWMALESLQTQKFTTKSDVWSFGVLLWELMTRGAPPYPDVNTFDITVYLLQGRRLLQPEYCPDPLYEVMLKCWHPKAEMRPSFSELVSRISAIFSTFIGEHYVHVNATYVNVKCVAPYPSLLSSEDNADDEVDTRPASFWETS

SMILES	Kd
CCCS(=O)(=O)Nc1ccc(F)c(C(=O)c2c[nH]c3ncc(-c4ccc(Cl)cc4)cc23)c1F [VEMURAFENIB]	> 30 µM (inactive)

Each molecule was assayed against High affinity nerve growth factor receptor (Homo sapiens, UniProt P04629).
Chain of High affinity nerve growth factor receptor (P04629 whole entry): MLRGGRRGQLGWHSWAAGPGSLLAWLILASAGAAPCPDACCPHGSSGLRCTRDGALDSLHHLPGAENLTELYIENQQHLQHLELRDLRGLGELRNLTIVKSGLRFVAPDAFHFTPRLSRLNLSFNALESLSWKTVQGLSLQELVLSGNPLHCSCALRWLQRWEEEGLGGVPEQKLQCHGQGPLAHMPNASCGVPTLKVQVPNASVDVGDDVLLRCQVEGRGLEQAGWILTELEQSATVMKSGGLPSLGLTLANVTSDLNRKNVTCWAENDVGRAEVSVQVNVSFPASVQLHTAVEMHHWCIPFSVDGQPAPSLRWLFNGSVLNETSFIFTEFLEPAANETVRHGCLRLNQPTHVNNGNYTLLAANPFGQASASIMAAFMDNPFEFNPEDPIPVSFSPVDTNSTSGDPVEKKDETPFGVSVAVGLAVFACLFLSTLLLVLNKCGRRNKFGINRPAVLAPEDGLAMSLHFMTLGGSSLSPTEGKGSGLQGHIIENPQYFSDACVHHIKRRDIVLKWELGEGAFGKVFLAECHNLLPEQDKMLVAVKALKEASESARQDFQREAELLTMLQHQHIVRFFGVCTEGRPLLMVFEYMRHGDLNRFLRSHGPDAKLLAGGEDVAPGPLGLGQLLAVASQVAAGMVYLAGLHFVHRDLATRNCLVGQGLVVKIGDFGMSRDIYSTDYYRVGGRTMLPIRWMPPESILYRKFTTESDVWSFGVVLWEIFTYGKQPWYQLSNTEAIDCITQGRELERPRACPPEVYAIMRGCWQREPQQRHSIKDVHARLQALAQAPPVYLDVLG

SMILES	Kd
CCCS(=O)(=O)Nc1ccc(F)c(C(=O)c2c[nH]c3ncc(-c4ccc(Cl)cc4)cc23)c1F [VEMURAFENIB]	> 30 µM (inactive)

The molecules below were run against Serine/threonine-protein kinase PAK 6 (Homo sapiens, UniProt Q9NQU5).
Chain of Serine/threonine-protein kinase PAK 6 (Q9NQU5 whole entry): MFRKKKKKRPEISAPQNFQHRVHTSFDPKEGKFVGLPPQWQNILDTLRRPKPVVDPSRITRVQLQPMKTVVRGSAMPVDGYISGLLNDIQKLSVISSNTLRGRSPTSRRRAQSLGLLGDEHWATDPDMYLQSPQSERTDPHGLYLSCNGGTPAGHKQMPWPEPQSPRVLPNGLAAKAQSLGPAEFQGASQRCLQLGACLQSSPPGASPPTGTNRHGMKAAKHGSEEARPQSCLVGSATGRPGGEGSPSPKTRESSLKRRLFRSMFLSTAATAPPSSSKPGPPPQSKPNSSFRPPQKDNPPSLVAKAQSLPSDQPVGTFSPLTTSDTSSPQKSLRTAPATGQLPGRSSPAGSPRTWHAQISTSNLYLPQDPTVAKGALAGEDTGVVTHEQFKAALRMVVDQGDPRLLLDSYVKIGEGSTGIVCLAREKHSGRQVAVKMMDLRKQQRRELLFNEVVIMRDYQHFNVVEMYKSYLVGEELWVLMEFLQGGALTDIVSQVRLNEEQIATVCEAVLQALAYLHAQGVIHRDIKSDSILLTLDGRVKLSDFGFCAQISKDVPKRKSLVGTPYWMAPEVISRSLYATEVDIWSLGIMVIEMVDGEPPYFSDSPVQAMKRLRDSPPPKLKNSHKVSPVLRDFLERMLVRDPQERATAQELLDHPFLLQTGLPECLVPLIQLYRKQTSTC

SMILES	Kd
CCc1cnn2c(NCc3ccc[n+]([O-])c3)cc(N3CCCC[C@H]3CCO)nc12 [DINACICLIB]	> 30 µM (inactive)
COc1cc2nccc(Oc3ccc(NC(=O)Nc4cc(C)on4)c(Cl)c3)c2cc1OC [TIVOZANIB]	> 30 µM (inactive)

Each molecule was assayed against Membrane-associated progesterone receptor component 1 (Homo sapiens, UniProt O00264).
Chain of Membrane-associated progesterone receptor component 1 (O00264 whole entry): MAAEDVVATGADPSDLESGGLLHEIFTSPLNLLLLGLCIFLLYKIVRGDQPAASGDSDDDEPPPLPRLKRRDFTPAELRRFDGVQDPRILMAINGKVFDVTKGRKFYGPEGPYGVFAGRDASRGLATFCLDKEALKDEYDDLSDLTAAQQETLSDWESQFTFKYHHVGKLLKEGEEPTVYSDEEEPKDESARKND

SMILES	Kd
CCc1cnn2c(NCc3ccc[n+]([O-])c3)cc(N3CCCC[C@H]3CCO)nc12 [DINACICLIB]	> 30 µM (inactive)
C[C@@H](c1ccc2nccn2c1)n1nnc2ncc(-c3cnn(C)c3)nc21 [SAVOLITINIB]	> 30 µM (inactive)
COc1cc2nccc(Oc3ccc(NC(=O)Nc4cc(C)on4)c(Cl)c3)c2cc1OC [TIVOZANIB]	> 30 µM (inactive)
CCCS(=O)(=O)Nc1ccc(F)c(C(=O)c2c[nH]c3ncc(-c4ccc(Cl)cc4)cc23)c1F [VEMURAFENIB]	> 30 µM (inactive)

The molecules below were run against Serine/threonine-protein kinase pim-2 (Homo sapiens, UniProt Q9P1W9).
Chain of Serine/threonine-protein kinase pim-2 (Q9P1W9 whole entry): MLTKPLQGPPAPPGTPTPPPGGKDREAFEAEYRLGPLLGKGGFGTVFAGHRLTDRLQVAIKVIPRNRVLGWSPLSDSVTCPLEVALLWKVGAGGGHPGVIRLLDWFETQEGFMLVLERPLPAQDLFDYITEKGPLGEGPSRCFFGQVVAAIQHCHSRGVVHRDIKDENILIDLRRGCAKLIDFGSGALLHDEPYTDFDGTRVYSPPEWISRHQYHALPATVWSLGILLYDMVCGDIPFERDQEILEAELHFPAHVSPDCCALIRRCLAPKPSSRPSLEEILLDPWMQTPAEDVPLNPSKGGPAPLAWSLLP

SMILES	Kd
CCc1cnn2c(NCc3ccc[n+]([O-])c3)cc(N3CCCC[C@H]3CCO)nc12 [DINACICLIB]	> 30 µM (inactive)
COc1cc2nccc(Oc3ccc(NC(=O)Nc4cc(C)on4)c(Cl)c3)c2cc1OC [TIVOZANIB]	> 30 µM (inactive)
CCCS(=O)(=O)Nc1ccc(F)c(C(=O)c2c[nH]c3ncc(-c4ccc(Cl)cc4)cc23)c1F [VEMURAFENIB]	> 30 µM (inactive)

These molecules were tested against Serine/threonine-protein kinase 38-like (Homo sapiens, UniProt Q9Y2H1).
Chain of Serine/threonine-protein kinase 38-like (Q9Y2H1 whole entry): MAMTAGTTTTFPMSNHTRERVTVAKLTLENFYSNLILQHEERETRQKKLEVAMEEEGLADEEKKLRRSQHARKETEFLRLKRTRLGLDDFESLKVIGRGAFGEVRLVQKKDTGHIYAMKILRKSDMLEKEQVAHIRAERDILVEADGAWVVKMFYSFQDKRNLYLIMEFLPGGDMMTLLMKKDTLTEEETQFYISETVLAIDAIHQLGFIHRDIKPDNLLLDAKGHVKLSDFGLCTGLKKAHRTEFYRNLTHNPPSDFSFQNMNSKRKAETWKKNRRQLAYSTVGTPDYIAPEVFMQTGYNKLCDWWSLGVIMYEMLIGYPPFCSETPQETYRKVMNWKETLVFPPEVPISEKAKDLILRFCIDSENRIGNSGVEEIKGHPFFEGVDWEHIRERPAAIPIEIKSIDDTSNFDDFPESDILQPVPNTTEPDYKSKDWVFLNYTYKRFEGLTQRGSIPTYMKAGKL

SMILES	Kd
CCc1cnn2c(NCc3ccc[n+]([O-])c3)cc(N3CCCC[C@H]3CCO)nc12 [DINACICLIB]	> 30 µM (inactive)
C[C@@H](c1ccc2nccn2c1)n1nnc2ncc(-c3cnn(C)c3)nc21 [SAVOLITINIB]	> 30 µM (inactive)
COc1cc2nccc(Oc3ccc(NC(=O)Nc4cc(C)on4)c(Cl)c3)c2cc1OC [TIVOZANIB]	> 30 µM (inactive)
CCCS(=O)(=O)Nc1ccc(F)c(C(=O)c2c[nH]c3ncc(-c4ccc(Cl)cc4)cc23)c1F [VEMURAFENIB]	> 30 µM (inactive)

These molecules were tested against Dual specificity testis-specific protein kinase 1 (Homo sapiens, UniProt Q15569).
Chain of Dual specificity testis-specific protein kinase 1 (Q15569 whole entry): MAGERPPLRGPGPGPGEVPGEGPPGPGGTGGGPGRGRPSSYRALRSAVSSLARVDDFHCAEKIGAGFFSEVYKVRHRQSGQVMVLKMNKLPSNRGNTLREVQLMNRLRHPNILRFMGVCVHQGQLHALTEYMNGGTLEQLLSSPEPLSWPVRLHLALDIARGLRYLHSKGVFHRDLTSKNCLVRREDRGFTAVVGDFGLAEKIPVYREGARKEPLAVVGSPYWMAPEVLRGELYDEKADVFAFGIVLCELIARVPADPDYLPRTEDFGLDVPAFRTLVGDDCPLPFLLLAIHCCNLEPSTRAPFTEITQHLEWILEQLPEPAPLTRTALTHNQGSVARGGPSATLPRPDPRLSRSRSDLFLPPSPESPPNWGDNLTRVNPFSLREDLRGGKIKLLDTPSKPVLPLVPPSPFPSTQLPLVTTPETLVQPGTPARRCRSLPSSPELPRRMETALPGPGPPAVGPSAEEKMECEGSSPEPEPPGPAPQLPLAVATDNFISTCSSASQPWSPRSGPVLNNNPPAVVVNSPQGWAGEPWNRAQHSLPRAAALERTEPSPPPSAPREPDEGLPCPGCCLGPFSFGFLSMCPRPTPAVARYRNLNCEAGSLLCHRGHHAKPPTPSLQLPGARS

SMILES	Kd
CCc1cnn2c(NCc3ccc[n+]([O-])c3)cc(N3CCCC[C@H]3CCO)nc12 [DINACICLIB]	> 30 µM (inactive)
C[C@@H](c1ccc2nccn2c1)n1nnc2ncc(-c3cnn(C)c3)nc21 [SAVOLITINIB]	> 30 µM (inactive)
COc1cc2nccc(Oc3ccc(NC(=O)Nc4cc(C)on4)c(Cl)c3)c2cc1OC [TIVOZANIB]	> 30 µM (inactive)
